According to patent publication US20260159474A1, “Aminoindane Compounds and Compositions and Methods of Their Therapeutic Use” (Solvonis Therapeutics Ireland Holdings Limited, priority 2021, published 2026):

Experiment: Plasma protein binding by equilibrium dialysis, rat plasma
Format: in vitro ADME
Settings: for Rat Plasma (Fu %): fraction unbound, 0.5 μM; for fraction unbound at 5 h, 0.5 μM: male, Sprague Dawley, rat, plasma, pH 7.4, read-out: Rat Plasma (Fu %)
Procedure: Methods: Plasma protein binding and blood tissue binding of test items (0.5 μM) was determined using biological samples from male Sprague Dawley (SD) rats and humans. […] Dexamethasone was used as a control compound for lung tissue binding. Various biological samples were spiked with test compounds according to the methods that follow.
Preparation of plasma or blood samples: An appropriate amount of test compound was dissolved in DMSO to yield a 10 mM solution. Further dilutions, to obtain 50 μM working solutions (WS), were then prepared using 50% acetonitrile in Milli-Q water. These 100×WS were used to spike plasma or blood to obtain a final concentration of 0.5 μM. From this initial spiking solution, control samples (n=3), referred to as T=0, were immediately extracted and used to calculate the recovery of the test item.
An equilibrium dialysis method was performed to determine protein binding in the various biological samples described herein. Materials were prepared and methods were in accordance with the following procedures.
Membranes were prepared for use in the equilibrium dialysis experiment. by soaking in deionized water for at least 60 minutes. After this period, 20% of pure ethanol was added, and the membranes were left in this solution for at least 20 minutes. The membranes were then rinsed in Milli-Q water prior to use.
To initiate the experiment, 150 μL of test item-free buffer (isotonic phosphate buffer for plasma and blood, artificial CSF buffer for brain or HBSS buffer for lung) was dispensed on one half-well of a 96-well dialyzer apparatus (HTDialysis LLC), and 150 μL of spiked matrix (plasma, blood, brain or lung) was loaded on the other half-well. Alternative volumes may be used according to the operating instructions of HTDialysis.
Dialysis buffer was prepared by dissolving Na2HPO4 8.69 g, KH2PO4 1.90 g, and NaCl 4.11 g in […] of MilliQ water, and adjusting the pH to 7.4 with H3PO4. At the end of the equilibration period (device is sealed and incubated under shaking for 5 hours at 37° C.), 50 μL of dialysed matrix will be added to 50 μL of corresponding test item free dialysed buffer, and vice versa for buffer, such that the volume of buffer to matrix will be the same. Samples were extracted by protein precipitation with 300 μL of acetonitrile containing rolipram (for positive ionization mode) or diclofenac (for negative ionization mode) as internal standard and centrifuged for 10 minutes at 2800 rpm. […]
Samples were then injected onto an HPLC MS/MS or UPLC MS/MS system. In order to control the integrity of the membrane after the dialysis process, the presence of protein was assessed in the buffer compartment. […]
Samples were analyzed in a LC-MS/MS system using an analytical method to monitor the compound to internal standard peak area ratios as representative of the compound concentrations. Alternatively, samples were analyzed by RapidFire.
Protein binding in plasma, blood, brain, and lung tissue samples were determined with the following formula: Afu=Buffer/x, wherein “x” may be plasma, blood, brain, or lung, and “Afu” is the apparent fraction unbound, and the other variables refer to the analyte/internal standard ratio determined in their specific compartment (buffer, plasma, blood, brain homogenate, and lung homogenate); Fucr-(1/D)/[(1/Afu)-1+(1/D)], wherein fucr is the fraction unbound corrected, D is the matrix dilution factor (D=1 for plasma, 2 for blood, 3 for brain, 7 for lung). % Binding=(1−fucr)×100 and % Unbound=100—% Bound. […]

SMILES	Rat Plasma (Fu %)	fraction unbound at 5 h, 0.5 μM
COC(=O)c1cc2c(cc1OC)CC(N)C2 (centres unmarked) [CMP-401]	Low	
COC(=O)c1ccc2c(c1)CC(N)C2 (centres unmarked) [CMP-405, 2-aminoindane-5-methylcarboxylate]	high binding in plasma specimens and Low	
CNC(C)Cc1ccc2c(c1)OCO2 (centres unmarked) [MDMA]	>50%	
COc1ccc2c(c1)CC(N)C2 (centres unmarked) [MEAI, 5-methoxy-2-aminoindane]		> 0.5
COc1cc2c(cc1C)CC(N)C2 (centres unmarked) [MMAI, 5-methoxy-6-methyl-2-aminoindane]		> 0.5
